The values below are quoted from earlier work in patent publication US9468638B2, “Itraconazole formulations” (Texas Southern University, priority 2010, dated 2016).

Values after ≈ are worked out from the molar mass of the structure shown. Like-named read-outs stand apart in the source and are kept apart here.

For data set [1] the following is noted: pH=8.1.
Test in data set [2]: not given
The source holds these as a separate data set.

For data set [3] the following is noted: human, in vivo, iv.
The conditions of data set [4]: rat, in vivo.
For data set [5] the following is noted: in vivo, iv.

With `CCC(C)n1ncn(-c2ccc(N3CCN(c4ccc(OCC5COC(Cn6cncn6)(c6ccc(Cl)cc6Cl)O5)cc4)CC3)cc2)c1=O` (centres unmarked) [Itraconazole], in data set [1], the “n-octanol/water partition coefficient log Po/w” value is reported as 5.66. Also, the water solubility entry reads like this: (neutral pH) “about 1 ng/mL”; (pH=1) “approximately 4 mcg/mL”. In data set [2] (PEG 400), the “solubility in PEG 400” value was 2140 µg/mL (≈ 3030 µM). Further, the “solubility in Tween 20” value in data set [2] (Tween 20) is 1190 µg/mL (≈ 1690 µM).

hydroxylpropyl-β-cyclodextrin: the “reduced clearance of hydroxylpropyl-β-cyclodextrin” value in data set [3] is given as 6 fold. Also, the carcinogenicity finding result in data set [4] is recorded as “produced pancreatic adenocarcinomas”. Besides, the “toxicity that led to discontinuation of Sporanox I.V. Injection” value in data set [5] is on record as “renal toxicity”.
